Reference: US11518764B2, “Substituted heteroaryls as inhibitors of the BCL6 BTB domain protein-protein interaction” (Ontario Institute for Cancer Research (OICR), priority 2018, dated 2022)

Tests used:
BCL6 BTB domain = BCL6 BTB domain (Homo sapiens (Human), UniProt P41182); experiment: Surface plasmon resonance (SPR) assay; format: binding; details: BCL6 BTB domain captured on SA chip, single cycle kinetics
[1] = tested on: BCL6 reporter construct (3xBCL6-TK-Luc) in SuDHL4 cells; experiment: Cell-based luciferase assay; details: Homo sapiens, SU-DHL-4, 48 h, read-out: Luciferase-Assay EC50, uM), SuDHL4-3xBCL6-TK-Luc cells, two days, high dose 10 uM
Summary of the method: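 SuDHL4 cells stably carrying a 3×BCL6-site TK-promoter firefly luciferase reporter, seeded at 15,000 cells/well, were dosed over a 10-point range (top 10 uM) and grown two days at 37 °C, 5% CO2. Luminescence then read after adding neolite reagent at room temperature.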

Karpas422 cells = experiment: Tumor cell growth inhibition assay; format: cell-based; details: Homo sapiens, KARPAS-422, 144 h, read-out: Tumor Growth Inhibition in Karpas-422 (IC50, uM), Karpas422 cells, six days, ATPlite
Summary of the method: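 Karpas422 cells (2,000/well) in Alpha-MEM with 10% FBS dosed across 10 concentrations (top 5 uM) and grown six days at 37° C., 5% CO2. Viability read as ATPlite luminescence.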

In the case of CN1CC2(CCN(c3cc(NC(=O)Cn4cc(-c5cc(Cl)c(O)c(C(N)=O)c5)c5c(=O)n(C)cnc54)c(Cl)cn3)C2)C1 [Compound I-482], the Kd (BCL6 BTB domain) is reported as 34.3 nM, the EC50 [1] is reported as 4.69 µM and the IC50 (Karpas422 cells) is reported as 2.32 µM.
Work on Cn1cc2cc(NC(=O)Cn3cc(-c4cc(Cl)c(O)c(C(N)=O)c4)c4c(=O)n(C)cnc43)c(Cl)cc2n1 [Compound I-182] yielded a Kd (BCL6 BTB domain) of 86.3 nM, an EC50 [1] of 1.41 µM and an IC50 (Karpas422 cells) of 1.03 µM.
COCCN1CCN(c2cc(NC(=O)Cn3cc(-c4cc(F)c(O)c(C(N)=O)c4)c4c(=O)n(C)cnc43)c(Cl)cn2)[C@@H](C)C1 [Compound I-416] gave a Kd (BCL6 BTB domain) of 2.73 nM, an EC50 [1] of 0.0787 µM and an IC50 (Karpas422 cells) of 0.0592 µM.
With COc1cc(-c2cn(CC(=O)Nc3cc(N4CCOCC4)ncc3Cl)c3nc(C)n(C)c(=O)c23)cc(C(N)=O)c1O [Compound I-123] the Kd (BCL6 BTB domain) was 7 nM, the EC50 [1] was 0.095 µM and the IC50 (Karpas422 cells) was 0.216 µM.
Cn1cnc2c(c(-c3cc(Cl)c(O)c(C(N)=O)c3)cn2CC(=O)Nc2cc3nccn3cc2Cl)c1=O [Compound I-174] was tested, and the Kd (BCL6 BTB domain) was 2950 nM, the EC50 [1] was 10 µM and the IC50 (Karpas422 cells) was 10 µM.
In the case of CO[C@@H]1CN(c2cc(NC(=O)Cn3cc(-c4cc(Cl)c(O)c(C(N)=O)c4)c4c(=O)n(C)c(C)nc43)c(Cl)cn2)C[C@@H]1F [Compound I-402], the Kd (BCL6 BTB domain) is reported as 28 nM, the EC50 [1] is reported as 0.18 µM and the IC50 (Karpas422 cells) is reported as 0.714 µM.
For Cc1cc(-c2cn(CC(=O)Nc3cc(N4CCOCC4)ncc3Cl)c3ccn(C)c(=O)c23)cc(C(N)=O)c1O [Compound I-142], the Kd (BCL6 BTB domain) was 2200 nM, the EC50 [1] was 4.02 µM and the IC50 (Karpas422 cells) was > 10 µM.
For Cc1nc2cc(Cl)c(NC(=O)Cn3cc(-c4cc(F)c(O)c(C(N)=O)c4)c4c(=O)n(C)cnc43)cc2o1 [Compound I-159], the Kd (BCL6 BTB domain) was 47.7 nM, the EC50 [1] was 0.282 µM and the IC50 (Karpas422 cells) was 0.282 µM.
C[C@H]1CN(C)CCN1c1cc(NC(=O)Cn2cc(-c3cc(Cl)c(O)c(C(N)=O)c3)c3c(=O)[nH]c(-c4ccccc4)nc32)c(Cl)cn1 [Compound I-261, (S)-3-chloro-5-(7-(2-((5-chloro-2-(2,4-dimethylpiperazin-1-yl)pyridin-4-yl)amino)-2-oxoethyl)-4-oxo-2-phenyl-4,7-dihydro-3H-pyrrolo[2,3-d]pyrimidin-5-yl)-2-hydroxybenzamide] showed a Kd (BCL6 BTB domain) of 39.8 nM, an EC50 [1] of 0.65 µM and an IC50 (Karpas422 cells) of 0.225 µM.
C[C@H]1CNCCN1c1cc(NC(=O)Cn2cc(-c3cc(C(N)=O)c(O)c4c3OCO4)c3c(=O)n(C)cnc32)c(Cl)c(F)n1 [Compound I-349] gave a Kd (BCL6 BTB domain) of 3.29 nM, an EC50 [1] of 0.131 µM and an IC50 (Karpas422 cells) of 0.0873 µM.
In the case of Cn1c(NCCC(F)(F)F)nc2c(c(-c3cc(Cl)c(O)c(C(N)=O)c3)cn2CC(=O)Nc2cc(N3CCOCC3)ncc2Cl)c1=O [Compound I-134], the Kd (BCL6 BTB domain) is reported as 97 nM, the EC50 [1] is reported as 0.477 µM and the IC50 (Karpas422 cells) is reported as 0.57 µM.
For CN1CC2CCC(C1)N2c1cc(NC(=O)Cn2cc(-c3cc(Cl)c(O)c(C(N)=O)c3)c3c(=O)n(C)c(C(F)(F)F)nc32)c(Cl)cn1 [Compound I-396], the Kd (BCL6 BTB domain) was 226 nM, the EC50 [1] was 0.683 µM and the IC50 (Karpas422 cells) was 0.749 µM.
Molecule CO[C@H]1CN(c2cc(NC(=O)Cn3cc(-c4cc(Cl)c(O)c(C(N)=O)c4)c4c(=O)n(C)c(C)nc43)c(Cl)c(F)n2)C[C@H]1F [Compound I-400] has a Kd (BCL6 BTB domain) of 27.8 nM, an EC50 [1] of 0.204 µM and an IC50 (Karpas422 cells) of 0.408 µM.
With Cc1nc2c(c(-c3cc(F)c(O)c(C(N)=O)c3)cn2CC(=O)Nc2cc(N3CC(C)(C)NC(C)(C)C3)ncc2Cl)c(=O)n1C [Compound I-243] the Kd (BCL6 BTB domain) was 12.4 nM, the EC50 [1] was 0.19 µM and the IC50 (Karpas422 cells) was 0.134 µM.
COc1cc(-c2cn(CC(=O)Nc3cc(N4CCOC[C@@H]4C)ncc3Cl)c3ncn(C)c(=O)c23)cc(C(N)=O)c1O [Compound I-153] showed a Kd (BCL6 BTB domain) of 4.14 nM, an EC50 [1] of 0.313 µM and an IC50 (Karpas422 cells) of 0.176 µM.
With C[C@H]1COCCN1c1cc(NC(=O)Cn2cc(-c3cc(F)c(O)c(C(N)=O)c3F)c3c(=O)n(C)cnc32)c(Cl)c(F)n1 [Compound I-472] the Kd (BCL6 BTB domain) was 55.7 nM, the EC50 [1] was 3.8 µM and the IC50 (Karpas422 cells) was 10 µM.
For CCN1CCN(c2cc(NC(=O)Cn3cc(-c4cc(Cl)c(O)c(C(N)=O)c4)c4c(=O)n(C)cnc43)c(Cl)c(F)n2)[C@@H](C)C1 [Compound I-427], the Kd (BCL6 BTB domain) was 13.8 nM, the EC50 [1] was 0.156 µM and the IC50 (Karpas422 cells) was 0.114 µM.
Cn1cnc2c(c(-c3cc(C(N)=O)c(O)c(F)c3F)cn2CC(=O)Nc2cc(N3CCCC3)nc(F)c2Cl)c1=O [Compound I-417] was tested, and the Kd (BCL6 BTB domain) was 21.7 nM, the EC50 [1] was 0.478 µM and the IC50 (Karpas422 cells) was 0.441 µM.
CO[C@@H]1CN(c2cc(NC(=O)Cn3cc(-c4cc(Cl)c(O)c(C(N)=O)c4)c4c(=O)n(C)cnc43)c(Cl)cn2)C[C@@H]1F [Compound I-365] gave a Kd (BCL6 BTB domain) of 17.4 nM, an EC50 [1] of 0.281 µM and an IC50 (Karpas422 cells) of 0.462 µM.
